Measurements published in ChEMBL document CHEMBL1136379, “Identification of potent and broad-spectrum antibiotics from SAR studies of a synthetic vancomycin analogue” (2003).
Values after ≈ are worked out from the molar mass of the structure shown.

Experiments:
Format in all cases: functional
Enterococcus faecium [1] = assay: Minimum inhibitory concentration against vancomycin-resistant Enterococcus faecium
Enterococcus faecium [2] = assay: Compound tested for Susceptibility of vancomycin-resistant Enterococcus faecium
Enterococcus faecalis = assay: Compound tested for Susceptibility of Enterococcus faecalis
Staphylococcus aureus [3] = assay: Compound tested for Susceptibility of Staphylococcus aureus
Streptococcus pneumoniae [4] = assay: Compound tested for Susceptibility of Streptococcus pneumoniae (Penicillin-intermediate)
[5] = test system: Staphylococcus epidermidis; assay: Compound tested for Susceptibility of Staphylococcus epidermidis
Streptococcus pyogenes = assay: Compound tested for Susceptibility of Streptococcus pyogenes
Escherichia coli [6] = assay: Compound tested for Susceptibility of Escherichia coli (efflux mutant)
Escherichia coli [7] = assay: Compound tested for Susceptibility of Escherichia coli
Haemophilus influenzae [8] = assay: Compound tested for Susceptibility of Haemophilus influenzae
[9] = test system: Staphylococcus epidermidis; assay: Compound tested for Susceptibility of Methicillin-resistant Staphylococcus epidermidis (MRSE)
Streptococcus pneumoniae [10] = assay: Compound tested for Susceptibility of Streptococcus pneumoniae
Enterococcus faecium [11] = assay: Compound tested for Susceptibility of Enterococcus faecium
Klebsiella pneumoniae = assay: Compound tested for Susceptibility of Klebsiella pneumoniae
Haemophilus influenzae [12] = assay: Compound tested for Susceptibility of Haemophilus influenzae (efflux mutant)
Staphylococcus aureus [13] = assay: Compound tested for Susceptibility of Methicillin-resistant Staphylococcus aureus […]
Moraxella catarrhalis = assay: Compound tested for Susceptibility of Moraxella catarrhalis
Pseudomonas aeruginosa = assay: Compound tested for Susceptibility of Pseudomonas aeruginosa

Compound	MIC (Enterococcus faecium [1]) [µg/mL]	MIC (Enterococcus faecium [2]) [µg/mL]	further results
CN[C@H](CC(C)C)C(=O)N[C@@H]1Cc2ccc(cc2)Oc2cc(ccc2O)C(C(=O)N[C@@H](CN)C(=O)N[C@@H](Cc2ccccc2)C(=O)N2Cc3[nH]c4ccccc4c3C[C@H]2C(N)=O)NC(=O)[C@H](CC(N)=O)NC1=O (stereo not given in full)	300 (≈ 300 µM)	150 (≈ 150 µM)	
CC(=O)N[C@@H](CN)C(=O)N[C@@H](Cc1ccccc1)C(=O)N1Cc2[nH]c3ccccc3c2C[C@H]1C(N)=O	600 (≈ 1220 µM)	1200 (≈ 2450 µM)	
CN[C@H](CC(C)C)C(=O)N[C@@H](CN)C(=O)N[C@@H](Cc1ccccc1)C(=O)N1Cc2[nH]c3ccccc3c2C[C@H]1C(N)=O	600 (≈ 1040 µM)	> 1200	
CC(=O)N[C@@H](CN)C(=O)N[C@@H](Cc1ccccc1)C(=O)N1Cc2[nH]c3ccccc3c2C[C@H]1C(=O)NCC(O)CNC(=O)[C@@H]1Cc2c([nH]c3ccccc23)CN1C(=O)[C@H](Cc1ccccc1)NC(=O)[C@H](CN)NC(C)=O	600 (≈ 578 µM)	18 (≈ 17.4 µM)	
CNC(CC(C)C)C(=O)N[C@@H](CN)C(=O)N[C@@H](Cc1ccccc1)C(=O)N1Cc2[nH]c3ccccc3c2C[C@H]1C(=O)NCC(O)CNC(=O)[C@@H]1Cc2c([nH]c3ccccc23)CN1C(=O)[C@H](Cc1ccccc1)NC(=O)[C@H](CN)NC(=O)[C@@H](CC(C)C)NC (stereo not given in full)	600 (≈ 497 µM)	18 (≈ 14.9 µM)	MIC (Enterococcus faecalis): 8 µg/mL (≈ 6.63 µM); MIC (Staphylococcus aureus [3]): 16 µg/mL (≈ 13.3 µM); MIC (Streptococcus pneumoniae [4]): 8 µg/mL (≈ 6.63 µM); MIC [5]: 24 µg/mL (≈ 19.9 µM); MIC (Streptococcus pyogenes): 2 µg/mL (≈ 1.66 µM); MIC (Escherichia coli [6]): 16 µg/mL (≈ 13.3 µM); MIC (Escherichia coli [7]): 32 µg/mL (≈ 26.5 µM); MIC (Haemophilus influenzae [8]): 96 µg/mL (≈ 79.5 µM); MIC [9]: 8 µg/mL (≈ 6.63 µM); MIC (Streptococcus pneumoniae [10]): 16 µg/mL (≈ 13.3 µM); MIC (Enterococcus faecium [11]): 4 µg/mL (≈ 3.31 µM); MIC (Klebsiella pneumoniae): > 128 µg/mL; MIC (Haemophilus influenzae [12]): 16 µg/mL (≈ 13.3 µM); MIC (Staphylococcus aureus [13]): 32 µg/mL (≈ 26.5 µM); MIC (Moraxella catarrhalis): 8 µg/mL (≈ 6.63 µM); MIC (Pseudomonas aeruginosa): 128 µg/mL (≈ 106 µM)
CN[C@H](CC(C)C)C(=O)N[C@@H]1Cc2ccc(cc2)Oc2cc(ccc2O)C(C(=O)N[C@@H](CN)C(=O)N[C@@H](Cc2ccccc2)C(=O)N2Cc3[nH]c4ccccc4c3C[C@H]2C(=O)NCCC(O)CCNC(=O)[C@@H]2Cc3c([nH]c4ccccc34)CN2C(=O)[C@H](Cc2ccccc2)NC(=O)[C@H](CN)NC(=O)C2NC(=O)[C@H](CC(N)=O)NC(=O)[C@H](NC(=O)[C@@H](CC(C)C)NC)Cc3ccc(cc3)Oc3cc2ccc3O)NC(=O)[C@H](CC(N)=O)NC1=O (stereo not given in full)	600 (≈ 288 µM)	18 (≈ 8.64 µM)	
NC(=O)C[C@@H]1NC(=O)[C@H](NC(=O)OCC2c3ccccc3-c3ccccc32)Cc2ccc(cc2)Oc2c(O)ccc(CC(=O)O)c2NC1=O	300 (≈ 451 µM)		
CN[C@@H](CC(C)C)C(=O)N[C@@H]1Cc2ccc(cc2)Oc2cc(ccc2O)C(C(=O)N[C@@H](CN)C(=O)N[C@@H](Cc2ccccc2)C(=O)N2Cc3[nH]c4ccccc4c3C[C@H]2C(=O)NCCCC(O)CCCNC(=O)[C@@H]2Cc3c([nH]c4ccccc34)CN2C(=O)[C@H](Cc2ccccc2)NC(=O)[C@H](CN)NC(=O)C2NC(=O)[C@H](CC(N)=O)NC(=O)[C@H](NC(=O)[C@@H](CC(C)C)NC)Cc3ccc(cc3)Oc3cc2ccc3O)NC(=O)[C@H](CC(N)=O)NC1=O (stereo not given in full) [VANCOMYCIN ANALOGUE]	600 (≈ 284 µM)	38 (≈ 18 µM)	
CN[C@H](CC(C)C)C(=O)N[C@@H]1Cc2ccc(cc2)Oc2cc(ccc2O)C(C(=O)N[C@@H](CN)C(=O)N[C@@H](Cc2ccccc2)C(=O)N2Cc3[nH]c4ccccc4c3C[C@H]2C(=O)NCC(O)CNC(=O)[C@@H]2Cc3c([nH]c4ccccc34)CN2C(=O)[C@H](Cc2ccccc2)NC(=O)[C@H](CN)NC(=O)C2NC(=O)[C@H](CC(N)=O)NC(=O)[C@H](NC(=O)[C@@H](CC(C)C)NC)Cc3ccc(cc3)Oc3cc2ccc3O)NC(=O)[C@H](CC(N)=O)NC1=O (stereo not given in full) [VANCOMYCIN ANALOGUE]	600 (≈ 292 µM)	9 (≈ 4.38 µM)	
CN[C@H](CC(C)C)C(=O)N[C@H]1C(=O)N[C@@H](CC(N)=O)C(=O)N[C@H]2C(=O)N[C@H]3C(=O)N[C@H](C(=O)N[C@H](C(=O)O)c4cc(O)cc(O)c4-c4cc3ccc4O)[C@H](O)c3ccc(c(Cl)c3)Oc3cc2cc(c3O[C@@H]2O[C@H](CO)[C@@H](O)[C@H](O)[C@H]2O[C@H]2C[C@](C)(N)[C@H](O)[C@H](C)O2)Oc2ccc(cc2Cl)[C@H]1O [VANCOMYCIN]	600 (≈ 414 µM)	600 (≈ 414 µM)	
